Experimental data reported in patent publication US6911465B1, “Anti-inflammatory indole derivatives” (AstraZeneca AB, priority 1999, dated 2005).
Read-outs that look alike come from different tables or passages of the source.

Legend:
MCP-1 receptor B (CCR2B) = target: T1, MCP-1 receptor B (CCR2B) (Homo sapiens, UniProt P41597); experiment: hMCP-1 receptor binding assay (125I-MCP-1, CHO-CCR2B cell membranes)
T1 construct: expressed in transfected cells; membrane fragments
T1 sequence (P41597 1-360 isoform P41597-2): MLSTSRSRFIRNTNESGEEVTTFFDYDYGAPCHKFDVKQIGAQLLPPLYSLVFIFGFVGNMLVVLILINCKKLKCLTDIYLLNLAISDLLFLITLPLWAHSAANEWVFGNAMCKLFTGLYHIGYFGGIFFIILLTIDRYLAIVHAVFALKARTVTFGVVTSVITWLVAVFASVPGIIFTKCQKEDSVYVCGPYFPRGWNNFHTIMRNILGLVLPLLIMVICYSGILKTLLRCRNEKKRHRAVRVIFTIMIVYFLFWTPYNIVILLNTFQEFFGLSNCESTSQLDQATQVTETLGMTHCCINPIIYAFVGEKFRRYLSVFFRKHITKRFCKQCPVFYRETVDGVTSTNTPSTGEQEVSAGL
Description: The MCP-1 receptor B (CCR2B) cDNA was cloned by PCR from THP-1 cell RNA using suitable oligonucleotide primers based on the published MCP-1 receptor sequences (Charo et al., 1994, Proc. Natl. Acad. Sci USA, 91, 2752). The resulting PCR products were cloned into vector PCR-II™ (In Vitrogen, San Diego, Calif.). Error free CCR2B cDNA was subcloned as a Hind III-Not I fragment into the eukaryotic expression vector pCDNA3 (In Vitrogen) to generate pCDNA3/CC-CKR2A and pCDNA3/CCR2B respectively.
Linearised pCDNA3/CCR2B DNA was transfected into CHO-K1 cells by calcium phosphate precipitation (Wigler et al., 1979, Cell, 16, 777). Transfected cells were selected by the addition of Geneticin Sulphate (G418, Gibco BRL) at 1 mg/mlo, 24 hours after the cells had been transfected. Preparation of RNA and Norther Blotting were carried out as described previously (Needham et al., 1995, Prot. Express. Purific., 6, 134). CHO-K1 clone 7 (CHO-CCR2B) was identified as the highest MCP-1 receptor B-expressor. […]
^125I MCP-1 was preapred using Bolton and Hunter conjugation (Bolton et al., 1973, Biochem. J., 133, 529; Amersham International plc]. Equilibrium binding assays were carried out using the method of Ernst et al., 1994, J. Immunol., 152, 3541. Briefly, varying amounts of ^125I-labeled MCP-1 were added to 7 μg of purified CHO-CCR2B cell membranes in 100 μl of Binding Buffer. After 1 hour incubation at room temperature the binding reaction mixtures wre filtered and washed 5 times through a plate washer (Brandel MLR-96T Cell Harvester) using ice cold Binding Buffer. Filter mats (Brandel GF/B) were pre-soaked for 60 minutes in 0.3% polyethyleneimine prior to use. Following filtration individual filters were separated into 3.5 ml tubes (Sarsted No. 55.484) and bound ^125I-labeled MCP-1 was determined (LKB 1277 Gammamaster). […] Non-specific binding was determined by the incinsion of a 200-fold molar excess of unlabelled MCP-1 in the reaction. […]

THP-1 cells [1] = experiment: MCP-1 mediated calcium flux in THP-1 cells; type: cell-based, human; conditions: stimulation of THP-1 cells, FURA-2, approximate; read-out: EC50 for rise in [Ca2+]i
Description: The human monocytic cell line THP-1 was grown in a synthetic cell culture medium RPMI 1640 supplemented with 10% foetal calf serum, 6 mM glutamine and Penicillin-Streptomycin (at 50 μg streptomycin/ml, Gibco BRL). THP-1 cells were washed in HBSS (lacking Ca^2+ and Mg^2+)+1 mg/ml BSA and resuspending in the same buffer at a density of 3×10^6 cells/ml. The cells were then loaded with […] FURA-2/AM for 30 min at 37° C., washed twice in HBSS, and resuspended in 1×10^6 cells/ml. THP-1 cell suspension (0.9 ml) was added to a 5 ml disposable curvette containing a magnetic stirrer bar and 2.1 ml of prewarmed (37° C.) HBSS containing 1 mg/ml BSA, 1 mM MgCl2 and 2 mM CaCl2. The cuvette was placed in a fluorescence spectrophootmeter (Perkin Elmer, Norwalk, Conn.) and preincubated for 4 min at 37° C. with stirring. Fluorescence was recorded over 70 sec and cells wre stimulated by addition of hMCP-1 to the curvette after 10 sec. [Ca^2+]i was measured by excitation at 340 nm and 380 nm alternately and subsequent measurement of the intensity of the fluorescence emission at 510 nm. […] Rmax is the maximal fluorescence ratio determined after additional of […] lonomycin, […] ratio determined by the subsequent addition of a Ca^2+ free solution containing 5 mM EGTA, and Sf2/Sb2 is the ratio of fluorescence values at 380 nm excitation determined at Rmin and Rmax, respectively. […]

THP-1 cells [2] = experiment: hMCP-1 mediated chemotaxis of THP-1 cells; type: cell-based, human; conditions: biphasic response
Description: In vitro chemotaxis assays were performed using the human monocytic cell line THP-1. Cell migration through polycarbonate membranes was measured by enumerating those passing through either directly by Coulter counting or indirectly by use of a colourimetric viability assay measuring the cleavage of a tetrazolium salt by the microchondrial respiratory chain (Scudiero D. A. et al. 1988, Cancer Res., 48, 4827-4833).
Chemoattractants were introduced into a 96-well microtiter plate which forms the lower well of a chemotaxis chamber fitted with a PVP-free 5 μm poresize polycarbonate adhesive framed filter membrane (NeuroProbe MB series, Cabin John, MD 20818, USA) according to the manufacturer's instructions. […] The plate was incubated at 37° C. for 3 h and the absorbance of the soluble formazan product was read on a microtiter plate reader at 450 nm. The data was input into a spreadsheet, corrected for any random migration in the absence of chemoattractant and the average absorbance values, standard error of the mean, and significance tests were calculated. hMCP-1 induced concentration dependent cell migration with a characteristic biphasic response, maximal […].

## MCP-1: Human Monocyte Chemoattractant Protein-1, the chemokine ligand of the CCR2 receptor
MCP-1 receptor B (CCR2B); cold competition, unlabelled MCP-1 vs 100 pM 125I-MCP-1, CHO-CCR2B membrane fragments, read-out: IC50 of MCP-1 binding to CCR2B
  IC50: 0.11 nM
MCP-1 receptor B (CCR2B); equilibrium binding, CHO-CCR2B membrane fragments
  Kd: 0.12 nM
THP-1 cells [1]
  EC50: ~2 nM
THP-1 cells [2]
  concentration of maximal cell migration: 0.5-1.0 nm

## O=C(CN1CCOCC1)Nc1cccc2c1cc(C(=O)O)n2Cc1ccc(Cl)c(Cl)c1 [Compound 2]
MCP-1 receptor B (CCR2B); competition with 100 pM labelled MCP-1, CHO-CCR2B membranes, 0.01-50 μM, read-out: IC50 in hMCP-1 receptor binding assay
  IC50: 1700 nM
